Experimental data as given in patent publication US20090117090A1, “INHIBITION OF GLYCOGEN SYNTHASE KINASE 3 BETA IN ARTERIAL REPAIR AND STENT RE-ENDOTHELIALIZATION” (OTTAWA HEART INSTITUTE RESEARCH CORPORATION, priority 2007, published 2009).
Read-outs that look alike come from different tables or passages of the source.

Key:
[1] = tested on: β-catenin; experiment: β-catenin nuclear levels by western blot of EPC nuclear extracts; assay type: cell-based, human; conditions: EPCs cultured in media supplemented with GSKI (2×) vs control media
Procedure: β-catenin nuclear levels were assayed by western blot of nuclear extracts from both control and treated EPCs. Briefly, nuclei were separated by differential centrifugation and total nuclear protein was extracted. Protein was then run on an acrylamide gel and transferred onto a PVDF membrane overnight. After transfer, the membrane was blocked for one hour in 5% skim milk powder in 0.1% Tween-20 in Tris buffered saline. This was then incubated for 48 hours with primary antibody of a monoclonal anti-phospho-β-catenin (Cell Signaling Technologies) diluted 1:1000 in 5% skim milk powder in TBS-T. After incubation the membrane was then washed 3 times for 5 minutes each with TBS-T. The membrane was then incubated in secondary antibody of goat anti rabbit IgG (H+ L) conjugated with horseradish peroxidase (1:5000 in TBS-T) for 24 hours. The membrane was washed and quantitated using ECL Plus (Amersham Biosciences).

[2] = tested on: VEGF; experiment: VEGF secretion by EPCs (ELISA); assay type: cell-based, human; conditions: 24 hours in VEGF free media
[3] = tested on: EPCs; experiment: EPC culture and enumeration (AcLDL uptake / UEA-1 dual positive cells); assay type: cell-based, human
Description: EPCs were isolated and cultured as previously described (17). Briefly, peripheral blood mononuclear cells (PBMCs) were isolated by ficoll gradient centrifugation from either healthy young volunteers or patients with angiographically verified CAD. Blood was collected by venipuncture and anticoagulated with EDTA. 5×10^6 PBMCs were then washed and resuspended in EGM-2 media (Clonetics) and plated on fibronectin coated plates. Media were supplemented with either LiCl (Sigma), GSKI VIII (Calbiochem; Cat. No. 361549; AR-A014418:N-(4-Methoxybenzyl)-N′-(5-nitro-1,3-thiazol-2-yl)urea), or vehicle (DMSO) at the indicated concentrations.
GSK inhibitor VIII is a GSK-3β isoform specific inhibitor derived from a class of compounds shown to inhibit GSK-3 both in vitro (54) and in vivo (53). After 96 hours of culture, non-adherent cells were removed and the plates washed three times with buffered wash solution. Cells were then incubated for another 72 hours before being labeling, enumeration, or being used in various assays.
For the task of enumeration EPCs were arbitrarily defined as cells dually positive for AcLDL uptake and ulex europeus agglutinin I (UEAI) binding. […] Plates of cells were again washed, and incubated for a DAPI nuclear counterstain before a coverslip was applied to the well and double positive cells were counted in 6 random high power fields (×200 magnification). […]

[4] = tested on: EPCs; experiment: In vitro prediction of maximal tolerated dose of GSKI in EPC culture; assay type: cell-based, human; conditions: multiples of IC50 concentration in EGM-2; 1× to 100× tested
Procedure: In accordance with another aspect of the present invention, local delivery of inhibitor at the site of arterial injury represents an alternative strategy for enhancing arterial repair and mitigating neointima formation. GSKI coated stents (GCSs) were manufactured for use in a rabbit carotid model of stent neointima formation as previously described (27). Prior to implanting these GCSs, in vitro experiments were performed in order to predict the maximal tolerated dose of GSKI we could deliver in vivo. EPCs were cultured in EGM-2 supplemented with 1×, 2×, 5×, 10×, 20×, 30×, 40×, 50×, and 100× concentrations of the GSKI. […] To manufacture the GCSs, bare metal stents were coated with muco-gel supplemented with DMSO (vehicle for GSKI) or muco-gel containing 20×GSKI as previously described (27). Once coated, stents were allowed to dry in a sterile environment and packaged aseptically prior to delivery. Stents were deployed in New Zealand white rabbit carotid arteries according to a previous protocol and the stent neointima was subjected to quantitative histomophometry 14 days post-stent deployment (22). […] Despite rapid re-endothelialization of GCSs, a neointima formed in both groups but was 50% smaller in area in GCSs vs. control stents. […]

[5] = tested on: EPCs; experiment: EPC apoptosis by propidium iodide flow cytometry; assay type: cell-based, human; conditions: 2×GSKI; EPCs of healthy controls and CAD patients
[6] = tested on: EPCs; experiment: EPC cell survival assay; assay type: cell-based, human; conditions: both healthy controls and patients with CAD, n=6
Procedure: Day seven EPCs were used for all experiments unless otherwise indicated. For the cell survival assay, six high power fields were enumerated on day 7 for each individual. Subsequently, cells were washed and the media changed every four days after which cells were again enumerated. Data are expressed as a percentage of initial cells present on day 7. For apoptosis studies cells from patients and healthy controls were cultured for 7 days. Cells were then lifted and recoated at a density of 2×10^6 mature EPCs per well. The cells were then allowed to incubate for an additional four days prior to being lifted with EDTA supplementation of the media and gentle agitation. Cells were pelleted and resuspended in HBSS. Prior to analysis by flow cytometry, 10 μL of propidium iodide was added to the cell suspension. EPCs were identified by uptake of acLDL-alexa488 (Invitrogen) and UEA-1 FITC labeling in separate experiments. Uptake of propidium iodide identified apoptotic cells. A total of ten thousand events was analyzed and the data expressed as a percentage of total EPCs being apoptotic. All experiments were conducted on a Beckman Coulter Cytomics FC 500 cytometer.

[7] = tested on: EPCs; experiment: EPC fibronectin adhesion assay; assay type: cell-based, human
Procedure: Day 7 EPCs were detached from their fibronectin coated plates by incubation with 0.5 mmol EDTA. Cells were pelleted, resuspended in EGM-2 and enumerated. Subsequently, 100,000 EPCs were plated in 24-well fibronectin coated plates and incubated for 30 minutes. After, the wells were washed three times with HBSS and the adherent cells labeled and six random high power fields enumerated. Blocking experiments were performed using a specific VLA-4 antibody (MAB169832, Chemicon) at a concentration of 10 ug/mL and allowing cells to incubate for 2 hours.

[8] = tested on: α-integrin subunits 1-5; experiment: Quantitative PCR of α-integrin subunits in EPCs; assay type: cell-based, human
[9] = target: GSK-3β (Homo sapiens, UniProt P49841); conditions: cited from earlier work
GSK-3β, sequence (P49841 whole entry, species assumed): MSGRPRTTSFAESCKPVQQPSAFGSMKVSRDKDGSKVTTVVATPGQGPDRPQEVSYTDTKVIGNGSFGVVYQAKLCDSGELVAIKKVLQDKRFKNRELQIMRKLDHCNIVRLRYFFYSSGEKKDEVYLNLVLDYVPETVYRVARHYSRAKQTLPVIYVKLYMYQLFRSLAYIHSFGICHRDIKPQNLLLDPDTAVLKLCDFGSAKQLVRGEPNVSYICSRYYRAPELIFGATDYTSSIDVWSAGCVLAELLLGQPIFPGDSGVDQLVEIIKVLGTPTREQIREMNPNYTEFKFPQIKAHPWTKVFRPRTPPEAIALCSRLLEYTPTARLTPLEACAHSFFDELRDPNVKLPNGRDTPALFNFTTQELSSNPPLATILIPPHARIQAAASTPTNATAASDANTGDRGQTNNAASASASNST

| SMILES | nuclear b-catenin levels [1] | VEGF secretion by mature EPCs [2] | EPC yield [3] | dose resulting in increased EPC death and attenuated function [4] | percentage of apoptotic cells [5] | EPC survival (long term viability) [6] | EPC adherence, healthy controls ([7]; EPCs from healthy controls, fibronectin, 30 minutes) | increase in EPC adherence, patients cells ([7]; EPCs from patients with CAD, fibronectin, 30 minutes) | number of adherent cells after 30 minutes ([7]; VLA4 blocking experiment, without antibody) | mRNA levels of α-1, -2, -3 and -5 integrin subunits ([8]; GSKI 1× and 2× vs control) | mRNA of α-4 integrin subunit ([8]; both concentrations of the GSKI (1×, 2×)) | doses in which LiCl inhibits GSK-3β [9] | EPC yield ([3]; 7 days culture, EPCs from both healthy controls and CAD patients, GSKI at 104 nm and 208 nm) |
| --- | --- | --- | --- | --- | --- | --- | --- | --- | --- | --- | --- | --- | --- |
| COc1ccc(CNC(=O)Nc2ncc([N+](=O)[O-])s2)cc1 [GSKI, N-(4-Methoxybenzyl)-N′-(5-nitro-1,3-thiazol-2-yl)urea] | increased levels | increase | increase | ≥ 30 × | reduction | significantly improves long term viability | dose dependent increase | ~4 fold | increased | No difference | upregulation | – | – |
| [Cl-].[Li+] [LiCl, lithium chloride] | – | – | – | – | – | – | – | – | – | – | – | 10 to 20 mM | increases |
